Experimental data taken from patent US20220289728A1, “MODULATORS OF TREX1” (Constellation Pharmaceuticals, Inc., priority 2019, published 2022).

Each compound was assayed against T1, full length human TREX1 (Homo sapiens, UniProt Q9NSU2) (assay: TREX1 Biochemical Assay (fluorescence, dsDNA substrate degradation)). Settings: 150 pM TREX1, 60 nM dsDNA substrate, 25 minutes at room temperature.
T1 construct: N-terminally His-Tev tagged full length human TREX1; His-TEV (His tag with TEV site) (N); made in house; host or cells: E. coli
T1 sequence (Q9NSU2 1-314): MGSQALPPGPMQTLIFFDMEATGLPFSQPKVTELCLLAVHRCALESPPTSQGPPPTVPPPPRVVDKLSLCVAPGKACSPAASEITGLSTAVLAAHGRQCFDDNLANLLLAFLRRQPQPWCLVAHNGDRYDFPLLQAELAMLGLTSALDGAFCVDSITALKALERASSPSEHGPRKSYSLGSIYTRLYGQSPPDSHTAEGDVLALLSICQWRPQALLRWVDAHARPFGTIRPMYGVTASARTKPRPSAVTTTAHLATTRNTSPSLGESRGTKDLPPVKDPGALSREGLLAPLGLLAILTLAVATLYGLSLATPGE
Protocol: Degradation of the dsDNA liberates free fluorophore to produce a fluorescent signal. Specifically, 7.5 μL of N-terminally His-Tev tagged full length human TREX1 (expressed in E. coli and purified in house) in reaction buffer (50 mM Tris (pH 7.4), 150 mM NaCl, 2 mM DTT, 0.1 mg/mL BSA, 0.01% (v/v) Tween-20 and 100 mM MgCl2) was added to a 384-well Black ProxiPlate Plus (Perkin Elmer) which already contained compound (150 nL) at varying concentrations as a 10 point dose-response in DMSO. To this was added 7.5 μL of dsDNA substrate (Strand A: 5′ TEX615/GCT AGG CAG 3′; Strand B: 5′ CTG CCT AGC/IAbRQSp (Integrated DNA Technologies)) in reaction buffer. Final concentrations were 150 pM TREX1, 60 nM dsDNA substrate in reaction buffer with 1.0% DMSO (v/v). After 25 minutes at room temperature, reactions were quenched by the addition of 5 μL of stop buffer (same as reaction buffer plus 200 mM EDTA). Final concentrations in the quenched reaction were 112.5 pM TREX1, 45 nM DNA and 50 mM EDTA in a volume of 20 μL. After a 5-minute incubation at room temperature, plates were read in a laser sourced Envision (Perkin-Elmer), measuring fluorescence at 615 nm following excitation w/570 nm light. IC50 values were calculated by comparing the measured fluorescence at 615 nm ratio relative to control wells pre-quenched w/stop buffer (100% inhibition) and no inhibitor (0% inhibition) controls as using non-linear least square four parameter fits and either Genedata or GraphPad Prism (GraphPad Software, Inc.).
For `CN(C)C(=O)c1ccc(C(c2ccccc2)N(C)c2nc(C(=O)Nc3cnoc3)c(O)c(=O)n2C)c(Cl)c1` (single isomer, unassigned) [Example 93], the IC50 was less than 100 nM. For `CN(c1nc(C(=O)Nc2cnoc2)c(O)c(=O)n1C)C(c1ccccc1)c1ccccn1` (single isomer, unassigned) [Example 42], the IC50 was less than 100 nM. Compound `CN(Cc1cccnc1)c1nc(C(=O)Nc2cnoc2)c(O)c(=O)n1C` [Example 32] has an IC50 of less than 100 nM. For `CN(Cc1ccc(Cl)cc1Cl)c1nc(C(=O)Nc2cnoc2)c(O)c(=O)n1C` [Example 6], the IC50 was less than 100 nM. `CN(c1nc(C(=O)Nc2cnoc2)c(O)c(=O)n1C)C(C)(c1ccccc1)c1ccccc1` [Example 52] gave an IC50 of less than 100 nM. With `CN(c1nc(C(=O)Nc2cnoc2)c(O)c(=O)n1C)C(c1cccc(C#N)c1)c1ccccc1Cl` (single isomer, unassigned) [Example 95] the IC50 was less than 100 nM. `CN(c1nc(C(=O)Nc2cnoc2)c(O)c(=O)n1C)C(c1ccccc1)C1CCOCC1` (single isomer, unassigned) [Example 46] was tested, and the IC50 was less than 100 nM. For `Cc1nn(C)cc1-c1cnc(CN(C)c2nc(C(=O)Nc3cnoc3)c(O)c(=O)n2C)cn1` [Example 80], the IC50 was less than 100 nM. `Cc1cccc(Cl)c1C(c1ccccn1)N(C)c1nc(C(=O)Nc2cnoc2)c(O)c(=O)n1C` (single isomer, unassigned) [Example 62] showed an IC50 of less than 100 nM. Compound `CN(Cc1ccccn1)c1nc(C(=O)Nc2cnoc2)c(O)c(=O)n1C` [Example 22] has an IC50 of 100 to 1000 nM. With “2-(dibenzylamino)-5-ethoxy-N-(isoxazol-4-yl)-1-methyl-6-oxo-1,6-dihydropyrimidine-4-carboxamide [Example 1]” the IC50 was less than 100 nM. With `CN(c1nc(C(=O)Nc2cnoc2)c(O)c(=O)n1C)C(c1cccc(C#N)c1)c1ccccc1Cl` (single isomer, unassigned) [Example 96] the IC50 was less than 100 nM.

What follows are compounds tested against T2, human TREX2 (residues M44-A279) (Homo sapiens, UniProt Q9BQ50) (assay: TREX2 Biochemical Assay (fluorescence, dsDNA substrate degradation)). Settings: 2.5 nM TREX2, 60 nM dsDNA substrate, 25 minutes at room temperature.
T2 construct: human TREX2 (residues M44-A279, expressed in E. coli); His-TEV (His tag with TEV site) (N); made in house; host or cells: E. coli
T2 sequence (Q9BQ50 44-279 isoform Q9BQ50-1): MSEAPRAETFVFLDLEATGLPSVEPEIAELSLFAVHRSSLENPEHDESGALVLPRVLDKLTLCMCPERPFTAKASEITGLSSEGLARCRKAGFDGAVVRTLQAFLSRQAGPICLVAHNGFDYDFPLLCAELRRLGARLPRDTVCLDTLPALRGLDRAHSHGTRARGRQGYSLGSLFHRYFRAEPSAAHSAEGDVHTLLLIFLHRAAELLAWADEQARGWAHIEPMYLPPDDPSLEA
Protocol: Degradation of the dsDNA liberates free fluorophore to produce a fluorescent signal. Specifically, 7.5 μL of N-terminally His-Tev tagged human TREX2 (residues M44-A279, expressed in E. coli and purified in house) in reaction buffer (50 mM Tris (pH 7.4), 150 mM NaCl, 2 mM DTT, 0.1 mg/mL BSA, 0.01% (v/v) Tween-20 and 100 mM MgCl2) was added to a 384-well Black ProxiPlate Plus (Perkin Elmer) which already contained compound (150 nL) at varying concentrations as a 10 point dose-response in DMSO. To this was added 7.5 μL of dsDNA substrate (Strand A: 5′ TEX615/GCT AGG CAG 3′; Strand B: 5′ CTG CCT AGC/IAbRQSp (IDT)) in reaction buffer. Final concentrations were 2.5 nM TREX2, 60 nM dsDNA substrate in reaction buffer with 1.0% DMSO (v/v). After 25 minutes at room temperature, reactions were quenched by the addition of 5 μL of stop buffer (same as reaction buffer plus 200 mM EDTA). Final concentrations in the quenched reaction mixture were […] TREX2, 45 nM DNA and 50 mM EDTA in a volume of 20 μL. After a 5-minute incubation at room temperature, plates were read in a laser sourced Envision (Perkin-Elmer), measuring fluorescence at 615 nm following excitation w/570 nm light. IC50 values were calculated by comparing the measured fluorescence at 615 nm ratio relative to control wells pre-quenched w/stop buffer (100% inhibition) and no inhibitor (0% inhibition) controls as using non-linear least square four parameter fits and either Genedata or GraphPad Prism (GraphPad Software, Inc.).
`CN(C)C(=O)c1ccc(C(c2ccccc2)N(C)c2nc(C(=O)Nc3cnoc3)c(O)c(=O)n2C)c(Cl)c1` (single isomer, unassigned) [Example 93] was tested, and the IC50 was 1000 to 10000 nM. Work on `CN(c1nc(C(=O)Nc2cnoc2)c(O)c(=O)n1C)C(c1ccccc1)c1ccccn1` (single isomer, unassigned) [Example 42] yielded an IC50 of 1000 to 10000 nM. `CN(Cc1cccnc1)c1nc(C(=O)Nc2cnoc2)c(O)c(=O)n1C` [Example 32] was tested, and the IC50 was 1000 to 10000 nM. In the case of `CN(Cc1ccc(Cl)cc1Cl)c1nc(C(=O)Nc2cnoc2)c(O)c(=O)n1C` [Example 6], the IC50 is reported as 1000 to 10000 nM. In the case of `CN(c1nc(C(=O)Nc2cnoc2)c(O)c(=O)n1C)C(C)(c1ccccc1)c1ccccc1` [Example 52], the IC50 is reported as 1000 to 10000 nM. For `CN(c1nc(C(=O)Nc2cnoc2)c(O)c(=O)n1C)C(c1cccc(C#N)c1)c1ccccc1Cl` (single isomer, unassigned) [Example 95], the IC50 was less than 1000 nM. Compound `CN(c1nc(C(=O)Nc2cnoc2)c(O)c(=O)n1C)C(c1ccccc1)C1CCOCC1` (single isomer, unassigned) [Example 46] has an IC50 of 1000 to 10000 nM. `Cc1nn(C)cc1-c1cnc(CN(C)c2nc(C(=O)Nc3cnoc3)c(O)c(=O)n2C)cn1` [Example 80] gave an IC50 of 1000 to 10000 nM. In the case of `Cc1cccc(Cl)c1C(c1ccccn1)N(C)c1nc(C(=O)Nc2cnoc2)c(O)c(=O)n1C` (single isomer, unassigned) [Example 62], the IC50 is reported as less than 1000 nM. In the case of `CN(Cc1ccccn1)c1nc(C(=O)Nc2cnoc2)c(O)c(=O)n1C` [Example 22], the IC50 is reported as 1000 to 10000 nM. For “2-(dibenzylamino)-5-ethoxy-N-(isoxazol-4-yl)-1-methyl-6-oxo-1,6-dihydropyrimidine-4-carboxamide [Example 1]”, the IC50 was less than 1000 nM. `CN(c1nc(C(=O)Nc2cnoc2)c(O)c(=O)n1C)C(c1cccc(C#N)c1)c1ccccc1Cl` (single isomer, unassigned) [Example 96] was tested, and the IC50 was less than 1000 nM.

What follows are compounds tested on HCT116 dual cells (assay: HCT116 Cell Assay (Lucia luciferase reporter of Type I interferon induction)). Settings: 4 h pre-treatment, pBR322/BstNI DNA transfection, Lucia luciferase at 48 h; relative to 10 uM compound 39.
Format: cell-based, human
Text: HCT116 dual cells (Invivogen, San Diego, Calif., USA) are derived from the human HCT116 colorectal carcinoma cell line. Cells have been selected for the stable integration of SEAP and Luciferase reporter genes, which expression is under the control of 5 tandem response elements for NF-KB/AP1 and STAT1/STAT2, respectively. The cell line was used to monitor Type I interferon induction and subsequent signaling by measuring the activity of the Lucia luciferase secreted in the culture medium.
HCT116 cells were plated in 96-well plate(s) at 40,000 cells/well in 100 uL DMEM supplemented with 10% FBS and 25 mM Hepes (pH 7.2-7.5). After overnight settling, cells were treated with TREX1i for 4 h (maximum DMSO fraction was 0.1%) before 1.25 ug/mL pBR322/BstNI restriction digest (New England Biolabs, Ipswich, Mass., USA) was transfected with Lipofectamine LTX (ThermoFisher, Grand Island, N.Y., USA), according to product manual recommendations. Briefly, Lipofectamine LTX (0.4 uL/well) was diluted in OptiMEM (5 uL/well). pBR322/BstNI (100 ng/well) was diluted in OptiMEM (5 uL/well) before Plus reagent (0.1 uL/100 ng DNA) was added. After 5 min incubation at room temperature, the DNA mixture was mixed dropwise with the diluted Lipofectamine LTX. After an additional 10 min incubation, the transfection mix (10 uL/well) was added to the cells. Cells were maintained at 37° C. for 48 h before monitoring the Lucia Luciferase activity from the cell culture medium. EC50 values were calculated by comparing the measured luminescence relative to 10 uM compound 39 (100% inhibition) and no inhibitor (0% inhibition) controls using non-linear least-squares four parameter fits in either Genedata Screener or GraphPad Prism (GraphPad Software, Inc.).
`CN(c1nc(C(=O)Nc2cnoc2)c(O)c(=O)n1C)C(c1ccccc1)c1ccccn1` (single isomer, unassigned) [Example 42] showed an EC50 of 1000 to 10000 nM. `CN(c1nc(C(=O)Nc2cnoc2)c(O)c(=O)n1C)C(c1ccccc1)C1CCOCC1` (single isomer, unassigned) [Example 46] was tested, and the EC50 was 1000 to 10000 nM. “2-(dibenzylamino)-5-ethoxy-N-(isoxazol-4-yl)-1-methyl-6-oxo-1,6-dihydropyrimidine-4-carboxamide [Example 1]” gave an EC50 of 1000 to 10000 nM. `CN(c1nc(C(=O)Nc2cnoc2)c(O)c(=O)n1C)C(c1cccc(C#N)c1)c1ccccc1Cl` (single isomer, unassigned) [Example 96] showed an EC50 of 1000 to 10000 nM.

Same assay, conditions: Homo sapiens, HCT-116, 4 h pre-treatment, pBR322/BstNI DNA transfection, Lucia luciferase at 48 h; relative to 10 uM compound 39
In the case of `CN(C)C(=O)c1ccc(C(c2ccccc2)N(C)c2nc(C(=O)Nc3cnoc3)c(O)c(=O)n2C)c(Cl)c1` (single isomer, unassigned) [Example 93], the EC50 is reported as 1000 to 10000 nM. In the case of `CN(Cc1cccnc1)c1nc(C(=O)Nc2cnoc2)c(O)c(=O)n1C` [Example 32], the EC50 is reported as 10000 to 100000 nM. `CN(Cc1ccc(Cl)cc1Cl)c1nc(C(=O)Nc2cnoc2)c(O)c(=O)n1C` [Example 6] showed an EC50 of 1000 to 10000 nM. `CN(c1nc(C(=O)Nc2cnoc2)c(O)c(=O)n1C)C(C)(c1ccccc1)c1ccccc1` [Example 52] showed an EC50 of 10000 to 100000 nM. `CN(c1nc(C(=O)Nc2cnoc2)c(O)c(=O)n1C)C(c1cccc(C#N)c1)c1ccccc1Cl` (single isomer, unassigned) [Example 95] showed an EC50 of less than 1000 nM. Work on `Cc1nn(C)cc1-c1cnc(CN(C)c2nc(C(=O)Nc3cnoc3)c(O)c(=O)n2C)cn1` [Example 80] yielded an EC50 of 10000 to 100000 nM. For `Cc1cccc(Cl)c1C(c1ccccn1)N(C)c1nc(C(=O)Nc2cnoc2)c(O)c(=O)n1C` (single isomer, unassigned) [Example 62], the EC50 was less than 1000 nM. Compound `CN(Cc1ccccn1)c1nc(C(=O)Nc2cnoc2)c(O)c(=O)n1C` [Example 22] has an EC50 of 10000 to 100000 nM.
